Test results from patent publication US11236046B2, “Substituted heterocyclic sulfonamide compounds useful as TRPA1 modulators” (Genentech, Inc., priority 2013, dated 2022).

Columns and labels:
[1] = in vivo rat pharmacokinetic (PK) studies, plasma clearance; conditions: for clearance: plasma, read-out: Rat PK Clp
[2] = biological target: human TRPA1 (Homo sapiens (Human), UniProt O75762); test: IC50 determination on the human TRPA1 channel, calcium fluorescence (Hamamatsu FDSS plate reader); type: cell-based; conditions: CHO cells expressing human TRPA1; block of cinnamaldehyde induced calcium influx; 20 minutes compound incubation; Hill coefficient fixed to 1.5; read-out: hTRPA1 AUC IC50
Sequence of human TRPA1 (O75762 whole entry): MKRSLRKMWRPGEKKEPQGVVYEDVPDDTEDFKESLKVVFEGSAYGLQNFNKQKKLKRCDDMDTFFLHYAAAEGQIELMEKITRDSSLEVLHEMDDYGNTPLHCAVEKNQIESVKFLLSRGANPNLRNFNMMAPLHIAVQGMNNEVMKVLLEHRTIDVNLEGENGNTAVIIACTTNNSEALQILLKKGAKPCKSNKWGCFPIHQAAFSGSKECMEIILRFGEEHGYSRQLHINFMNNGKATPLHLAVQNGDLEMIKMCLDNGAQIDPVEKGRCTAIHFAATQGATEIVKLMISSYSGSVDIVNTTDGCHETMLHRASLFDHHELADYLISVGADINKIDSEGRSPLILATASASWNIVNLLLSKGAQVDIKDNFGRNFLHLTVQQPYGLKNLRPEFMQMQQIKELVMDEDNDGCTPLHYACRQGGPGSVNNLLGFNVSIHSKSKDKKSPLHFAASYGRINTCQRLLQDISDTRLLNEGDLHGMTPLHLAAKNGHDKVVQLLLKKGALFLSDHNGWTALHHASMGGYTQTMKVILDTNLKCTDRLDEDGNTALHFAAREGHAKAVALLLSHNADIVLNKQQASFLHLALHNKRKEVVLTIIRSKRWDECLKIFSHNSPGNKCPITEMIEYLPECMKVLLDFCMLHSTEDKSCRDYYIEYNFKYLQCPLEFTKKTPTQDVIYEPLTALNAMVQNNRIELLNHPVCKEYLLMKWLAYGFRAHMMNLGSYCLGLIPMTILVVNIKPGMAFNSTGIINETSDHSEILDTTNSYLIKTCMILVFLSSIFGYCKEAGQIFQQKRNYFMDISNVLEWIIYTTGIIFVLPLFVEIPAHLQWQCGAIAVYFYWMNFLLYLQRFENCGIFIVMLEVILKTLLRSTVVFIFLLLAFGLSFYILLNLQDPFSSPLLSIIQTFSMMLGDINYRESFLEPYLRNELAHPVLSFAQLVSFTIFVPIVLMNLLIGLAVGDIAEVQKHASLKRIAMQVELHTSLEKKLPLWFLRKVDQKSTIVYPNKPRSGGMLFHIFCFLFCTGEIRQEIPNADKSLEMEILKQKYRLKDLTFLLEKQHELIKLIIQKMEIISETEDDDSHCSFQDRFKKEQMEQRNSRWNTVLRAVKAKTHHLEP
Protocol: IC50s (effective concentration) of compounds on the human TRPA1 channel were determined using a Hamamatsu FDSS fluorescence plate reader. CHO cells expressing human TRPA1 were plated into 384-well plates, incubated overnight at 37 C, and loaded with BD calcium indicator dye for 1 hr at 37° C. followed by 15 minutes. at room temperature. The assay buffer was Hank's Balanced Salt Solution (HBSS) containing 20 mM HEPES (pH readjusted to 7.4) along with 0.02% BSA.
Following dye load and plate cool down, compounds were added to the cells using the FDSS while monitoring fluorescence to determine whether any of the test compounds have TRPA1 agonist activity. Plates were then incubated with compound for 20 minutes at room temperature prior to adding agonist. Following this incubation, […] cinnamaldehyde was added to all wells of the plate and block of this cinnamaldehyde induced calcium influx was measured.
Fixing the Hill coefficient will generally reduce variability of the IC50 determination. The IC50s were examined by eye to make sure the MIN and MAX points were set correctly prior to validation of the results.

Row | Compound | clearance [1] [mL/min/kg] | IC50 [2] [nM] | further results
1 | COc1nn(-c2ccc(C(F)(F)F)nc2)cc1CNC(=O)[C@@H]1C[C@@H](F)CN1S(=O)(=O)c1ccc(F)cc1 [(2S,4R)-4-fluoro-1-(4-fluorophenyl)sulfonyl-N-[[3-methoxy-1-[6-(trifluoromethyl)-3-pyridyl]pyrazol-4-yl]methyl]pyrrolidine-2-carboxamide] | 13 | – | –
2 | O=C(NCc1cc(-c2ccc(OC(F)F)cc2)ncn1)[C@@H]1C[C@@H](F)CN1S(=O)(=O)c1ccc(F)cc1 [(2S,4R)-N-[[6-[4-(difluoromethoxy)phenyl]pyrimidin-4-yl]methyl]-4-fluoro-1-(4-fluorophenyl)sulfonyl-pyrrolidine-2-carboxamide] | 13.2 | – | –
3 | O=C(NCc1cc(-c2ccc(C(F)(F)F)nc2)ncn1)[C@@H]1CC(F)(F)CN1S(=O)(=O)c1ccc(F)cc1 [(2S)-4,4-difluoro-1-(4-fluorophenyl)sulfonyl-N-[[6-[6-(trifluoromethyl)-3-pyridyl]pyrimidin-4-yl]methyl]pyrrolidine-2-carboxamide] | 30 | – | –
4 | O=C(NCc1cc(-c2ccc(C(F)(F)F)nc2)ncn1)[C@@H]1[C@@H](F)CCN1S(=O)(=O)c1ccc(F)cc1 [(2R,3S)-3-fluoro-1-(4-fluorophenyl)sulfonyl-N-[[6-[6-(trifluoromethyl)-3-pyridyl]pyrimidin-4-yl]methyl]pyrrolidine-2-carboxamide] | 101 | – | –
5 | C[C@@]1(F)C[C@@H](C(=O)NCc2cc(-c3ccc(C(F)(F)F)nc3)ncn2)N(S(=O)(=O)c2ccc(F)cc2)C1 [(2S,4R)-4-fluoro-1-(4-fluorophenyl)sulfonyl-4-methyl-N-[[6-[6-(trifluoromethyl)-3-pyridyl]pyrimidin-4-yl]methyl]pyrrolidine-2-carboxamide] | 11.3 | – | –
6 | N#C[C@@H]1C[C@@H](C(=O)NCc2cc(-c3ccc(C(F)(F)F)cc3)ncn2)N(S(=O)(=O)c2ccc(F)cc2)C1 [(2S,4R)-4-cyano-1-(4-fluorophenyl)sulfonyl-N-[[6-[4-(trifluoromethyl)phenyl]pyrimidin-4-yl]methyl]pyrrolidine-2-carboxamide] | 7.6 | – | –
7 | O=C(NCc1cc(F)cc(-c2cnc(C(F)F)cn2)c1)[C@@H]1C[C@@H](F)CN1S(=O)(=O)c1ccc(F)cc1 [(2S,4R)-N-[[3-[5-(difluoromethyl)pyrazin-2-yl]-5-fluoro-phenyl]methyl] 4-fluoro-1-(4-fluorophenyl)sulfonyl-pyrrolidine-2-carboxamide] | 9.9 | – | –
8 | O=C(NCc1cc(-c2ccc(C(F)(F)F)nc2)ncn1)[C@@H]1C[C@@H](F)CN1S(=O)(=O)c1ccc(F)cc1 [(2S,4R)-4-fluoro-1-(4-fluorophenyl)sulfonyl-N-[[6-[6-(trifluoromethyl)-3-pyridyl]pyrimidin-4-yl]methyl]pyrrolidine-2-carboxamide] | – | – | Rat PK Clp [1]: 15 mL/min/kg; stability in in vivo rat PK studies (clearance from the blood), in words ([1]; compared with related compounds): highest stability (slowest clearance)
9 | COc1nc(CNC(=O)[C@@H]2C[C@@H](F)CN2S(=O)(=O)c2ccc(F)cc2)cc(-c2ccc(C(F)(F)F)nc2)n1 [(2S,4R)-4-fluoro-1-(4-fluorophenyl)sulfonyl-N-[[2-methoxy-6-[6-(trifluoromethyl)-3-pyridyl]pyrimidin-4-yl]methyl]pyrrolidine-2-carboxamide] | 16.5 | – | –
10 | O=C(NCc1cc(-c2ccc(C(F)(F)F)nc2)ncn1)[C@@H]1[C@@H](F)CCN1S(=O)(=O)c1ccc(F)cc1 [Example 35, (2R,3S)-3-fluoro-1-(4-fluorophenylsulfonyl)-N-((6-(6-(trifluoromethyl)pyridin-3-yl)pyrimidin-4-yl)methyl)pyrrolidine-2-carboxamide] | – | 23 | –
11 | O=C(NCc1cc(N2CCC(C(F)(F)F)CC2)ncn1)[C@@H]1C[C@@H](F)CN1S(=O)(=O)c1ccc(F)cc1 [Example 11, (2S,4R)-4-fluoro-1-(4-fluorophenylsulfonyl)-N-((6-(4-(trifluoromethyl)piperidin-1-yl)pyrimidin-4-yl)methyl)pyrrolidine-2-carboxamide] | – | 434 | –
12 | O=C(NCc1cc(-c2ccc(C(F)(F)F)nc2)ncn1)[C@@H]1C[C@@H](F)CN1S(=O)(=O)c1ccc(F)cc1 [Example 3, (2S,4R)-4-fluoro-1-(4-fluorophenylsulfonyl)-N-((6-(6-(trifluoromethyl)pyridin-3-yl)pyrimidin-4-yl)methyl)pyrrolidine-2-carboxamide] | – | 97 | –
13 | O=C(NCc1cc(-c2ccc(C(F)(F)F)nc2)nc(-c2ccc(C(F)(F)F)nc2)c1)[C@@H]1C[C@@H](F)CN1S(=O)(=O)c1ccc(F)cc1 [(2S,4R)-N-[[2,6-bis[6-(trifluoromethyl)-3-pyridyl]-4-pyridyl]methyl]-4-fluoro-1-(4-fluorophenyl)sulfonyl-pyrrolidine-2-carboxamide] | 9.1 | – | –
14 | O=C(NCc1cc(-c2ccc(C3CC3)cc2)ncn1)[C@@H]1C[C@@H](F)CN1S(=O)(=O)c1ccc(F)cc1 [Example 10, (2S,4R)—N-((6-(4-cyclopropylphenyl)pyrimidin-4-yl)methyl)-4-fluoro-1-(4-fluorophenylsulfonyl)pyrrolidine-2-carboxamide] | – | 107 | –
15 | C[C@@]1(C(=O)NCc2cc(-c3ccc(C(F)(F)F)nc3)ncn2)C[C@@H](F)CN1S(=O)(=O)c1ccc(F)cc1 [(2S,4R)-4-fluoro-1-(4-fluorophenyl)sulfonyl-2-methyl-N-[[6-[6-(trifluoromethyl)-3-pyridyl]pyrimidin-4-yl]methyl]pyrrolidine-2-carboxamide] | 15 | – | –
16 | COC[C@@]1(C(=O)NCc2cc(-c3ccc(C(F)(F)F)nc3)ncn2)CCCN1S(=O)(=O)c1ccc(F)cc1 [Example 30, (R)-1-(4-fluorophenylsulfonyl)-2-(methoxymethyl)-N-((6-(6-(trifluoromethyl)pyridin-3-yl)pyrimidin-4-yl)methyl)pyrrolidine-2-carboxamide] | – | 252 | –
17 | O=C(NCc1cc(-c2ccc(C(F)(F)F)nc2)ncn1)[C@@H]1C[C@@H](F)CN1S(=O)(=O)c1ccc(F)c(F)c1 [Example 25, (2S,4R)-1-(3,4-difluorophenylsulfonyl)-4-fluoro-N-((6-(6-(trifluoromethyl)pyridin-3-yl)pyrimidin-4-yl)methyl)pyrrolidine-2-carboxamide] | – | 126 | –
18 | O=C(NCc1cn(-c2ccc(C(F)(F)F)cc2)nc1Cl)[C@@H]1C[C@@H](F)CN1S(=O)(=O)c1ccc(F)cc1 [Example 16, (2S,4R)—N-([3-chloro-1-[4-(trifluoromethyl)phenyl]-1H-pyrazol-4-yl]methyl)-4-fluoro-1-[(4-fluorobenzene)sulfonyl]pyrrolidine-2-carboxamide] | – | 8 | –
19 | O=C(NCc1cc(-c2ccc(OC(F)(F)F)cc2)ncn1)[C@@H]1C[C@@H](F)CN1S(=O)(=O)c1ccc(F)cc1 [Example 21, (2S,4R)-4-fluoro-1-(4-fluorophenylsulfonyl)-N-((6-(4-(trifluoromethoxy)phenyl)pyrimidin-4-yl)methyl)pyrrolidine-2-carboxamide] | – | 21 | –
20 | Cc1nc(CNC(=O)[C@@H]2C[C@@H](F)CN2S(=O)(=O)c2ccc(F)cc2)cc(-c2ccc(C(F)(F)F)nc2)n1 [Example 22, (2S,4R)-4-fluoro-1-(4-fluorophenylsulfonyl)-N-((2-methyl-6-(6-(trifluoromethyl)pyridin-3-yl)pyrimidin-4-yl)methyl)pyrrolidine-2-carboxamide] | – | 87 | –
21 | O=C(NCc1cc(-c2cnc(C(F)(F)F)nc2)c(F)cn1)[C@@H]1C[C@@H](F)CN1S(=O)(=O)c1ccc(F)cc1 [(2S,4R)-4-fluoro-1-(4-fluorophenyl)sulfonyl-N-[[5-fluoro-4-[2-(trifluoromethyl)pyrimidin-5-yl]-2-pyridyl]methyl]pyrrolidine-2-carboxamide] | 5.9 | – | –
22 | O=C(NCc1cc(-c2ccc(C(F)(F)F)nc2)ncn1)[C@@H]1CCCN1S(=O)(=O)c1ccc(F)cc1 [(2S)-1-(4-fluorophenyl)sulfonyl-N-[[6-[6-(trifluoromethyl)-3-pyridyl]pyrimidin-4-yl]methyl]pyrrolidine-2-carboxamide] | 98 | – | –
23 | O=C(NCc1cc(-c2ccc(C(F)(F)F)nc2)ncn1)[C@@H]1[C@H]2CC[C@H](C2)N1S(=O)(=O)c1ccc(F)cc1 [Example 34, (1R,3S,4S)-2-(4-fluorophenylsulfonyl)-N-((6-(6-(trifluoromethyl)pyridin-3-yl)pyrimidin-4-yl)methyl)-2-azabicyclo[2.2.1]heptane-3-carboxamide] | – | 40 | –
24 | O=C(NCc1cc(-c2ccc(C(F)(F)F)nc2)ncn1)[C@]1(C(F)F)CCCN1S(=O)(=O)c1ccc(F)cc1 [Example 31, (S)-2-(difluoromethyl)-1-(4-fluorophenylsulfonyl)-N-((6-(6-(trifluoromethyl)pyridin-3-yl)pyrimidin-4-yl)methyl)pyrrolidine-2-carboxamide] | – | 29 | –
25 | O=C(NCc1cc(-c2ccc(C(F)(F)F)cc2)ncn1)[C@@H]1C[C@@H](F)CN1S(=O)(=O)c1cncc(F)c1 [Example 28, (2S,4R)-4-fluoro-1-(5-fluoropyridin-3-ylsulfonyl)-N-((6-(4-(trifluoromethyl)phenyl)pyrimidin-4-yl)methyl)pyrrolidine-2-carboxamide] | – | 229 | –
26 | O=C(NCc1cc(-c2ccc(C(F)(F)F)nc2)c(F)cn1)[C@@H]1C[C@@H](F)CN1S(=O)(=O)c1ccc(F)cc1 [Example 9, (2S,4R)-4-fluoro-N-((5′-fluoro-6-(trifluoromethyl)-3,4′-bipyridin-2′-yl)methyl)-1-(4-fluorophenylsulfonyl)pyrrolidine-2-carboxamide] | – | 20 | –
